Test results: publication PMC11207953, “Phytochemical Investigation of Polyphenols from the Aerial Parts of Tanacetum balsamita Used in Transylvanian Ethnobotany and Parallel Artificial Membrane Permeability Assay” (Plants, 2024)

Key:
[1] = set-up: method as in PMID 29182998; conditions: isolated from Tanacetum parthenium; cited from earlier work
[2] = Parallel artificial membrane permeability assay for the gastrointestinal tract (PAMPA-GI), coupled with UHPLC-DAD; type: in vitro ADME; conditions: constituent measured within T. balsamita 50% (v/v) ethanolic extract (TbE), donor pH 6.8, acceptor pH 7.4, 37 °C, Pe in cm/s, n = 9, read-out: logPe PAMPA-GI (n = 9) (converted)
From the text: (§1) The ability of the compounds in T. balsamita extract (TbE and TbW) to cross biological membranes of the gastrointestinal (GI) tract and the blood–brain barrier (BBB) by passive diffusion was investigated using the PAMPA model. The coupling of this assay with UHPLC separation allowed the rapid simultaneous investigation of the membrane permeability of the compounds present in the extract (Figure 3). […] Due to the artificial nature of the membrane used in the assay, only passive transport mechanisms can occur, unlike in cell-based assays. This is particularly important in the case of plant extracts due to their complexity, as the evaluation of results obtained by different co-existing mechanisms (e.g., active transport, or metabolism) can be challenging. Furthermore, no significant differences in effective permeabilities are observed in the PAMPA, whether assessed with single compounds or mixtures. […]
(§2) After incubation, sandwich plates were separated, and the concentrations of each compound in the starting donor solution and in the acceptor and donor wells were determined in triplicate by chromatographic peak areas derived from the UHPLC-DAD method described above. UV spectra and chromatograms were recorded at 200–400 nm, and the chromatograms acquired at the UV absorption maxima of each compound were used for data evaluation. […]

[3] = Parallel artificial membrane permeability assay for the blood–brain barrier (PAMPA-BBB), coupled with UHPLC-DAD; type: in vitro ADME; conditions: constituent measured within T. balsamita 50% (v/v) ethanolic extract (TbE), donor pH 7.4, acceptor pH 7.4, 37 °C, Pe in cm/s, n = 9, read-out: logPe PAMPA-BBB (n = 9) (converted)
From the text: as §1, §2

Papp at 4 h [2] [×10⁻⁶ cm/s] | Papp at 4 h [3] [×10⁻⁶ cm/s] | Structure (SMILES) | permeability in the PAMPA-BBB model (in words) [1]
 |  | COc1ccc(-c2oc3cc(OC)c(OC)c(O)c3c(=O)c2OC)cc1O [casticin] | good permeability
 |  | COc1c(O)cc2oc(-c3ccc(O)c(O)c3)c(OC)c(=O)c2c1O [axillarin] | good permeability
 |  | COc1ccc(-c2cc(=O)c3c(O)c(OC)c(O)c(OC)c3o2)cc1 [nevadensin] | good permeability
 |  | COc1cc(-c2cc(=O)c3c(O)c(OC)c(O)c(OC)c3o2)ccc1O [sudachitin] | good permeability
17.8 | 34.7 | O=c1cc(-c2ccc(O)cc2)oc2cc(O)cc(O)c12 [Compound 86, apigenin] | good permeability
